# Experimental data as given in US10945978B2, “Treatment and diagnosis of melanoma” (The Rockefeller University, priority 2012, dated 2021).
# “Also recorded” adds a separate entry of the source.
# Key:
# [1] = system: ApoE; assay: ApoE expression by qRT-PCR in human melanoma cells; type: cell-based; conditions: MeWo cells, 500 nM, 1 μM or 2 μM, 48 hours
# Procedure: Total RNA was extracted from various cell lines using the miRvana kit (AM1560, Applied Biosystems, Austin, Tex.). The expression levels of mature miRNAs were quantified using the Taqman miRNA expression assay (4427975-0002228, Applied Biosystems). RNU44 was used as an endogenous control for normalization. For mRNA expression analyses, 600 ng of total RNA was reverse transcribed using the cDNA First-Strand Synthesis Kit (18080-051, Invitrogen), and roughly 200 ng of the resulting cDNA was then mixed with SYBR green PCR Master Mix (4309155, Applied Biosystems) and the appropriate primers. Each reaction was performed in quadruplicate, and mRNA expression was quantified by performing real-time PCR amplification using an ABI Prism 7900HT Real-Time PCR System (Applied Biosystems). GAPDH was used as an endogenous control for normalization. The following primers were used: […]
# RNA was extracted from whole cell lysates using the Total RNA Purification Kit (17200, Norgen, Thorold, Canada). 600 ng of total RNA was then reverse transcribed into cDNA using the cDNA First-Strand Synthesis Kit (18080-051, Invitrogen), and quantitative real-time PCR amplification was performed as previously described (Pencheva et al., 2012) using an ABI Prism 7900HT Real-Time PCR System (Applied Biosystems, Austin, Tex.). Each PCR reaction was carried out in quadruplicates. Gene expression was normalized to GAPDH, which was used as an endogenous control.
# For every sample, 600 ng of RNA was reverse transcribed into cDNA using the cDNA First-Strand Synthesis kit (Invitrogen). Approximately 200 ng of cDNA was mixed with SYBR® green PCR Master Mix and the corresponding forward and reverse primers specific for detection of human ApoE. Each reaction was carried out in quadruplicates, and ApoE mRNA expression levels were measured by quantitative real-time PCR amplification using an ABI Prism 7900HT Real-Time PCR System (Applied Biosystems). The relative ApoE expression was determined using the ΔΔCt method. GAPDH was used as an endogenous control for normalization purposes.
# [2] = system: B16F10 parental and DTIC-resistant cells; assay: Tumor growth by DTIC-sensitive and DTIC-resistant B16F10 cells; type: in vivo, mouse; conditions: dacarbazine 50 mg/kg, i.p., daily
# Procedure: First, the cells were treated with 500 μg/mL DTIC for one week. Following this initial DTIC treatment, the remaining (˜10%) viable cells were allowed to recover for one week, after which 750 rag/mL of DTIC was added to the cell media for 5 days. Subsequent to this high-dose treatment, the cells were allowed to recover in the presence of low-dose DTIC (100 jag/mL) for one week. The cells were then continuously cultured in cell media containing 200 rag/mL DTIC for at least one month prior to grafting the cells into mice. DTIC was added to fresh cancer cell media every 3 days.
# [3] = system: human umbilical vein endothelial cells (HUVEC's); assay: Endothelial recruitment assay (HUVEC migration towards melanoma cells); type: cell-based; conditions: MeWo, HT-144, SK-Mel-2, SK-Mel-334.2; 1 μM for 72 hours
# Procedure: 5×10^4 cancer cells were seeded into 24-well plates approximately 24 hours prior to the start of the assay. HUVEC's were grown to 80% confluency and serum starved in EGM-2 media supplemented with 0.2% FBS for 16 hours. HUVEC's were then pulsed with Cell Tracker Red CMTPX dye (C34552, Invitrogen) for 45 minutes. Meanwhile, cancer cells were washed with PBS, 0.5 mL of 0.2% FBS EGM-2 media was added to each well, and a 3.0 μm HTS Fluoroblock insert (351151, BD Falcon, San Jose, Calif.) was placed into each well. 1×10^5 HUVEC's, resuspended in 0.5 mL of starvation media, were seeded into each trans-well insert, and the recruitment assay was allowed to proceed for 16-18 hours at 37° C. For neutralization antibody and/or recombinant protein experiments, antibody/protein was then added to each well at the appropriate concentration as indicated in the figures: 40 μg/mL anti-ApoE 1D7, 40 μg/mL anti-IgG, 100 μM rhApoE3, and 100 μM BSA. Upon completion of the assay, the inserts were processed and analyzed as described for the matrigel invasion assay above (See Matrigel Invasion Assay).
# The endothelial recruitment assay was carried out as previously described (Pencheva et al., 2012; Png et al., 2012). Melanoma cells were treated with DMSO, GW3965, T0901317, or Bexarotene at 1 μM for 56 hours, after which 5×10^4 cells were seeded in a 24-well plate in the presence of each drug and allowed to attach for 16 hours prior to starting the assay. HUVEC cells were serum-starved overnight in EGM-2 media containing 0.2% FBS. The following day, 1×10^5 HUVEC cells were seeded into a 3.0 μm HTS Fluoroblock trans-well migration insert (351151, BD Falcon, San Jose, Calif.) fitted into each well containing cancer cells at the bottom. The HUVEC cells were allowed to migrate towards the cancer cells for 20 hours at 37° C., after which the inserts were processed as previously described (Pencheva et al., 2012). For ApoE antibody neutralization experiments, 40 μg/mL 1D7 anti-ApoE blocking antibody (Heart Institute, University of Ottawa, Ottawa, Canada) or 40 μg/mL anti-IgG control antibody (AB-108-C, R&D Systems, Minneapolis, Minn.) was added to each trans-well insert at the start of the assay.
# Subsequently, 5×10^4 cancer cells were seeded into 24-well plates in the presence of each drug or DMSO and allowed to attach for 16 hours prior to starting the assay. Human umbilical vein endothelial cells (HUVEC cells) were serum-starved in 0.2% FBS-containing media overnight. The following day, 1×10^5 HUVEC cells were seeded into a 3.0 μm HTS Fluoroblock insert (351151, BD Falcon) fitted into each well containing the cancer cells at the bottom. The HUVEC cells were allowed to migrate towards the cancer cells for 20 hours, after which the inserts were washed in PBS, fixed in 4% PFA, labeled with DAPI, and mounted on slides. The basal side of each insert was imaged using an inverted fluorescence microscope (Zeiss Axiovert 40 CFL) at 5× magnification, and the number of DAPI-positive cells was quantified using ImageJ.
# [4] = system: MeWo, MeWo-LM2, HT-144, SK-Mel-2 and SK-Mel-334.2 human melanoma cells; assay: Trans-well matrigel cell invasion assay, melanoma cells; type: cell-based; conditions: 1 μM for 72 hours
# Procedure: Cancer cells were serum-starved in 0.2% FBS DMEM-based media for 12 hours. Trans-well invasion chambers (354480, BD Biosciences, Bedford, Mass.) were pre-equilibrated prior to beginning the assay by adding 0.5 mL of starvation media to the top and bottom chambers. After 30 minutes, the media in the top chamber was removed, and 0.5 mL of media containing 1×10^5 cancer cells was added into each matrigel-coated trans-well insert and incubated at 37° C. for 24 hours. For neutralization antibody and/or recombinant protein experiments, antibody/recombinant protein was added to each well at the start of the assay at the following concentrations as indicated in the figures: 5-40 μg/mL anti-ApoE 1D7 (Heart Institute, University of Ottawa), 5-40 μg/mL anti-IgG (AB-108-C, R&D Systems, Minneapolis, Minn.), 100 μM recombinant human ApoE3 (4696, BioVision, Mountain View, Calif.), and 100 μM BSA (A2153, Sigma-Aldrich). Upon completion of the assay, matrigel-coated inserts were washed with PBS, the cells at the top side of each insert were scraped off, and the inserts were fixed in 4% paraformaldehyde for 15 minutes. The inserts were then cut out and mounted onto slides using VectaShield mounting medium containing DAPI (H-1000, Vector Laboratories, Burlingame, Calif.). The basal side of each insert was imaged using an inverted fluorescence microscope (Zeiss Axiovert 40 CFL) at 5× magnification, taking three representative images for each insert. The number of invaded cells was quantified using ImageJ (NIH).
# The cell invasion assay was performed as previously described in detail (Pencheva et al., 2012) using a trans-well matrigel invasion chamber system (354480, BD Biosciences). In brief, various melanoma cells were cultured in the presence of DMSO, GW3965, T0901317, or Bexarotene at 1 μM for 56 hours, after which melanoma cells were switched to starvation media (0.2% FBS) for 16 hours in the presence of each drug. Following starvation, cells were seeded into matrigel-coated trans-well inserts, and the invasion assay was allowed to proceed for 24 hours at 37° C. For ApoE antibody neutralization experiments, 40 μg/mL 1D7 anti-ApoE blocking antibody (Heart Institute, University of Ottawa, Ottawa, Canada) or 40 t g/mL anti-IgG control antibody (AB-108-C, R&D Systems, Minneapolis, Minn.) was added to each trans-well insert at the start of the assay.
# The cells were then serum starved for 16 hours in 0.2% FBS media in the presence of each corresponding drug or DMSO. Following serum starvation, the cells were subjected to the trans-well invasion assay using a matrigel invasion chamber system (354480, BD Biosciences). Invasion chambers were pre-equilibrated prior to the assay by adding 0.5 mL of starvation media to the top and bottom wells. Meanwhile, cancer cells were trypsinized and viable cells were counted using trypan blue. Cancer cells were then resuspended at a concentration of 2×10^5 cells/1 mL starvation media, and 0.5 mL of cell suspension, containing 1×10^5 cells, was seeded into each trans-well. The invasion assay was allowed to proceed for 24 hours at 37° C. […] Following fixation, the inserts were washed in PBS, cut out, and mounted onto slides using VectaShield mounting medium containing DAPI nuclear stain (H-1000, Vector Laboratories). The basal side of each insert was imaged using an inverted fluorescence microscope (Zeiss Axiovert 40 CFL) at 5× magnification, and the number of DAPI-positive cells was quantified using ImageJ.
# [5] = system: melanoma cells (MeWo, MeWo-LM2, HT-144, SK-Mel-334.2) and endothelial cells; assay: In vitro cell proliferation, viability and serum starvation assays; type: cell-based, human; conditions: MeWo, HT-144, SK-Mel-334.2; 1 μM, 5 days
# Procedure: To determine the effects of miR-199a or miR-1908 over-expression and combinatorial LNA-induced miRNA inhibition on cell proliferation, 2.5×10^4 cells were seeded in triplicate in 6-well plates, and viable cells were counted after 5 days. […] Viable cells were counted after 8, 24, 48, 72, and 120 hours.
# The number of viable cells was counter after 8, 16, and 24 hours.
# To determine the effects of GW3965, T0901317, and Bexarotene on in vitro cell growth, 2.5×10^4 melanoma cells were seeded in triplicate in 6-well plates and cultured in the presence of DMSO, GW3965, T0901317, or Bexarotene at 1 μM each. After 5 days, the number of viable and dead cells was counted using the trypan blue dye (72-57-1, Sigma-Aldrich), which selectively labels dead cells.
# [6] = system: B16F10 mouse melanoma cells; assay: Subcutaneous B16F10 tumor growth in C57BL/6 mice; conditions: in chow: WO-2010-0138598 Ex. 9 10 or 100 mg/kg/day, SB742881 100 mg/kg/day
# Procedure: Animals were palpated weekly for tumor formation, after which sizeable tumors were measured twice a week. Tumor volume was calculated as (small diameter)^2×(large diameter)/2.
structure (smiles),measurement,setting,value
Fc1ccc(-c2c3cccc(C(F)(F)F)c3nn2Cc2ccc(F)cc2Cl)cc1 [LXR-623 3],ApoE expression induction,[1],varied degrees of ApoE expression induction
CN(C)/N=N/c1[nH]cnc1C(N)=O [dacarbazine],growth of the DTIC-sensitive parental line,[2],significantly suppressed
same,tumor growth by B16F10 DTIC-resistant cells,[2],did not affect
CC(C)(O)c1cn(-c2ccc(-c3cccc(S(C)(=O)=O)c3)cc2)c(C(C)(C)c2ccccc2Cl)n1 [Compound 38],ApoE expression induction,[1],varied degrees of ApoE expression induction
C=C(c1ccc(C(=O)O)cc1)c1cc2c(cc1C)C(C)(C)CCC2(C)C [bexarotene],ability of melanoma cells to recruit endothelial cells,[3],did not significantly affect
same,ability of melanoma cells to invade through matrigel,"[4]; MeWo, HT-144, SK-Mel-2, SK-Mel-334.2",suppressed invasion only in half of the melanoma lines tested
same,cell proliferation or cell viability rates,[5],did not affect
CC(C)(O)c1cn(-c2ccc(-c3cc(F)c(CO)c(S(C)(=O)=O)c3)cc2F)c(C(C)(C)c2c(Cl)cccc2Cl)n1 [Compound 12],ApoE expression induction,[1]; listed as WO-2010-0138598 Ex. 9,varied degrees of ApoE expression induction; also recorded: potently induce
same,melanoma primary tumor growth,[6],significantly inhibited
same,"inhibition of in vitro cancer progression phenotypes (cell invasion, endothelial recruitment)","[4]; MeWo cells, relative to lower potency LXR agonists",more effective
